Data on one substance can be found in patent US5936063A, “Antimicrobial peptide isolated from Bufo bufo gargarizans” (priority 1998, dated 1999).

The subject of assay [1] is Salmonella typhimurium. The assay is described as follows: Minimal inhibitory concentration test. Type of assay: cell-based. As to conditions: Gram-negative bacteria. Here is the method:
(§1) Antimicrobial activity of the peptide of the invention was measured by its minimal inhibitory concentration against various test microorganisms (see: Table 1).
(§2) On the other hand, comparison of the antimicrobial activity of the peptide with a commercially available Magainin 2 (Sigma, USA) was followed and summarized in Table 2 below.

The test system of assay [2] is Staphylococcus aureus. Nature of the assay: Minimal inhibitory concentration test. As to conditions: Gram-positive bacteria. It is filed as cell-based. The method, then:
as §1, §2

With Magainin 2, the values for the Minimal inhibitory concentration in assay [1] and in assay [2] were 25 mg/mL and 13 mg/mL, respectively.
